Five compounds from patent US5451686A, “3 and 5 alkyl and phenyl 4-(hydroxy or acyloxy)-alkyl substituted 2(5H)-furanones as anti-inflammatory agents” (Allergan, Inc., priority 1994, dated 1995) can be followed below.

For one test, the system named is Calcium^2+ channel. Kind of test: Calcium Channel (mobilization) Inhibition Assay (Fura-2 fluorescence). It counts as cell-based. The text has this:
Calcium Channel (mobilization) Inhibition Assay
Polymorphonuclear leukocytes (PMNa), gastric glands, GH3 cells, A431 cells, spleen cells, human keratinocytes corneal cells, etc. were loaded with the Ca^2+ sensitive fluorescent dye, Fura-2. The appropriate cell type was chosen and the potency and efficacy of the anti-inflammatory furanones on calcium mobilization, calcium channel inhibition was quantitated. The methods used for A431 cells listed below are representative of those used for other cells.
A431 cells were detached using a 5-10 min trypsin-EDTA treatment whereas GH3 cells were treated 2 to 5 min with a 1% pancreatin solution. Cells were immediately washed twice in a 20 mM HEPES buffer (pH 7.4) containing 120 mM NaCl, 6 mM KCl, 1 mM MgSO4, 1 mg/ml glucose and 1 mg/ml pyruvate and 1.4 mM calcium (medium A). Approximately 5×10^6 cells were suspended in medium A and incubated with 4 uM fura-2-AM for 15 min at 37° C.
After washing the fura-2 loaded cells, the uptake of dye was checked using fluorescence microscopy and found to be evenly distributed in the cytosol of all cells. Fluorescence was continuously recorded with a Perkin-Elmer LS-5 spectrofluorometer. The excitation wavelength was set at 340 nm and emission wavelength set at 500 nm. The cell suspension was continually stirred, maintained at 37° C. and equilibrated for approximately 5 min before addition of various agents. [Ca^2+ i was calculated using the following formula: [formula]
All fluorescence values were measured relative to a EGTA-quenched signal determined as follows: F was the relative fluorescence measurement of the sample. Fmax was determined by lysing the cells with digitonin (100 ug/ml) in DMSO. After Fmax was determined the pH was adjusted to 8, with NaOH and Ca^2+ chelated with 3 mM EGTA to totally quench the fura-2 signal and obtain Fmin.
When quin-2- was used, cells were incubated with 10 uM quin-2- at 37° C. for 1 hour, washed and then used.

The target of test [1] is bee venom phospholipase A2 (Apis mellifera, UniProt P00630). It counts as biochemical.
bee venom phospholipase A2, sequence (P00630 34-167 limits assumed): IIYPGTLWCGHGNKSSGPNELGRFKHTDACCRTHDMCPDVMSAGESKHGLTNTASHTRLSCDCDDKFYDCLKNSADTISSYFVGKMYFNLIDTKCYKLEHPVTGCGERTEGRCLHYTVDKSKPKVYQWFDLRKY
The mark [2] stands for this setting: read-out: IC50, Calcium^2+ Channel Mobilization Inhibition, KCl induced.
The mark [3] stands for this setting: read-out: IC50, Calcium^2+ Channel Mobilization Inhibition, TRH induced.

Each structure is given as a SMILES string. Where two headings read alike, the source gives them in different places.

As for `CCCCCCCCCCCCC(O)C1=CC(=O)OC1C` (single isomer, unassigned) [Compound 3, 4-(1-Hydroxytridecyl)-5-methyl-2(5H)-furanone], the results for the IC50 in the test with Calcium^2+ channel (setting [2]) and in the test with Calcium^2+ channel (setting [3]) were 470 nM and 670 nM, respectively. The “IC50, Phospholipase A2 Assay” value in test [1] is “inactive at 3 μM”.

For `CCCCCCCCCCCCC(OC(C)=O)C1=CC(=O)OC1C` (centres unmarked) [Compound 1, 4-(1-Acetoxytridecyl)-5-methyl-2(5H)-furanone], the IC50 with Calcium^2+ channel (setting [2]) worked out at 360 nM; in the test with Calcium^2+ channel (setting [3]), 6400 nM. Also, the “IC50, Phospholipase A2 Assay” value in test [1] is “inactive at 3 μM”.

For the compound `CCCCCCCCCCCCC(OC(C)=O)C1=C(C)C(=O)OC1` (centres unmarked) [Compound 2, 4-(1-Acetoxytridecyl)-3-methyl-2-furanone], the half-maximal inhibitory concentration (IC50) in the test on Calcium^2+ channel (setting [2]) is 250 nM; in the test with Calcium^2+ channel (setting [3]) it was 1000 nM. Also, in test [1], the “IC50, Phospholipase A2 Assay” value was “inactive at 3 μM”.

In the case of `CCCCCCCCCCCC(=O)OCC1=C(c2ccccc2)C(=O)OC1C` (centres unmarked) [Compound 4, 4-Dodecoyloxymethyl-5-methyl-3-phenyl-2(5H)-furanone], the “IC50, Calcium^2+ Channel Mobilization Inhibition, TRH induced” value with Calcium^2+ channel (TRH induced) was “inactive”. The IC50 with Calcium^2+ channel (setting [2]) was found to be 8000 nM. Also, in test [1], the “IC50, Phospholipase A2 Assay” value was “inactive at 3 μM”.

For the compound `CC1=C(CC/C(C)=C/CCC2=CCC(C3=CC(=O)OC3O)OC2O)C(C)(C)CCC1` (centres unmarked) [manoalide, reference compound], the IC50 came to 800 nM with Calcium^2+ channel (setting [2]) and 600 nM in the test on Calcium^2+ channel (setting [3]).
